Assay results: patent US8133984B2, “Oligonucleotides comprising signalling pairs and hydrophobic nucleotides, stemless beacons, for detection of nucleic acids, methylation status and mutants of nucleic acids” (PENTABASE ApS, priority 2006, dated 2012)
“Also recorded” adds a separate entry of the source. {FAM} = fluorescein (FAM) fluorophore label; {BHQ1} = Black Hole Quencher 1

Assays:
Assay type in all cases: binding
matched DNA target = experiment: Melting temperature experiment (dissociation curve) of probe hybridised to matched DNA target; conditions: for difference between hybridisation temperature to matched and mismatched target: FIG. 3, matched versus mismatched target; for temperature at which the probe hybridises to its matched target: FIG. 3, negative derivative of dissociation curve, 4 mM MgCl2, 50 mM KCl, 10 mM TRIS-HCl, pH=8.0
Description: (§1) The measurement was done as a melting temperature experiment on a Mx3000, Stratagene Real-time PCR instrument in a 96-well plate. The measurements were done in a buffer solution reflecting the buffer solutions used in a normal Real-time PCR reaction. The buffer contained 4 mM MgCl2, 50 mM KCl, 10 mM TRIS-HCl, pH=8.0. 1 μL of the Stemless Beacon (5 pmol/μL) and 2 μL of the DNA target sequence (5 pmol/μL) and 22 μL of the buffer mentioned above. First the mixtures were heated to 95° C. for 1 min to denature the secondary structures followed by annealing of the duplexes at 35° C. and ramping up to 95° C. while measuring the signal for every degrees change. Results are shown in FIG. 2, and other details like the sequences of the Stemless Beacons can be seen in the legend to said Figure.
(§2) The Measurements were carried out as described in example 2 above. Result and sequence information can be found in FIG. 3 and in the legend to said figure. The results are shown as the first derivative of the signal against temperature.

mismatched DNA target = experiment: Melting temperature experiment (dissociation curve) of probe hybridised to mismatched DNA target; conditions: for temperature at which the probe hybridises to its mismatched target: FIG. 3, negative derivative of dissociation curve, 4 mM MgCl2, 50 mM KCl, 10 mM TRIS-HCl, pH=8.0
Description: as §1, §2

Bgal_WT_tar oligo target = experiment: Affinity of stemless probes to single stranded oligo target (melt 25-90° C.); conditions: for Signal (25° C.): fluorescence at 25° C., hybridised to oligo target; for Signal (25° C.) / Signal (90° C.): 280 mM NaCl, 20 mM Na2HPO4 buffer; for Signal (90° C.): fluorescence at 90° C.
Description: This example illustrates how stemless beacons comprising hydrophobic modifications of the structure: X—Y-Q where X is a backbone monomer unit linked to the oligo by phosphordiester bonds and of the structure —O—CH2—CH2—O—, Y is a —CH2—O—CH2— linker and Q is 1′-pyrene, will have higher affinity towards a fully complementary target sequence than a probe not comprising said hydrophobic modifications.
It can be seen from FIG. 13 that all stemless beacons have the similar or higher affinity for the complementary oligo nucleotide target compared to the corresponding DNA. Furthermore it can be calculated that all of the stemless beacons presented in this example (exclusive probe—1) have a similar or higher signal-to-noise ratio than the DNA probe without hydrophobic modifications (signal at 25 degrees divided by signal at 90 degrees).

[1] = test system: nucleotide 2074 of human Andrenogen receptor, wild type (THP cDNA) and A→G mutant (LNCap cDNA); experiment: End-point affinity measurements on FAM and HEX channel, SNP detection
Description: (§3) A test was setup to see if the used combination of probes would be able to distinguish between the wildtype and the A→G transition mutant. Measurements in this example were carried out on the Real-time PCR machine Rotorgene™ 3000 from Corbett Research.
(§4) In this experiment the mut. specific probe was added together with wt. specific probe in a homogenous assay. The label 1 means the inserted pseudonucleotide or hydrophobic nucleotide (Phosphoramidite of (S)-1-(4,4′-dimethoxytriphenylmethyloxy)-3-pyrenemethyloxy-2-propanol) comprising the hydrophobic, intercalating molecule pyrene (with the number XII from the description above). The label 2 means the inserted pseudonucleotide or hydrophobic nucleotide (Phosphoramidite of 3-(1-O-(4,4′-dimethoxytriphenylmethyl)-2-O-(2-cyanoethyl diisopropylamidophosphite)-1,2-butandiol)-4-N-(7,9-Dimethyl-3H-pyrido[3′,2′:4,5]thieno[3,2-d]pyrimidin-4-one)) (comprising the intercalating hydrophobic group with the number XXVI from the description above). FAM and Hex are fluorophores and BHQ1 is a quencher.
(§5) The template: 2 samples of each with cDNA extracted from either LNCap (mutant) and/or THP (wt) (6 samples overall).
(§6) The Real-Time PCR profile used is depicted in FIG. 14B.

[2] = test system: nucleotide 2074 of human Andrenogen receptor, wild type (THP cDNA) and A→G mutant (LNCap cDNA); experiment: Real-time PCR SNP detection, fluorescence read at 55, 61 and 65° C.
Description: as §3, §4, §5, §6

[3] = Example 2, FIG. 2, methylated/unmethylated bisulphite treated DNA target

Substance: FAM-A2AAA2ATCCCG2CGA2ACT-BHQ1 (DNA ANAAANATCCCGNCGANACT; FAM, BHQ1, 4 hydrophobic pseudonucleotide insertions, chemistry not fully specified) [Stemless Beacon]
- melting temperature of the probe against the fully matched target (matched DNA target; [3]): 67 °C
- background fluorescence (fluorescence of unbound probe) compared to the Stemless DNA probe (matched DNA target; FIG. 2, 35 to 95° C.): significantly reduced background fluorescence; also recorded: much lower
- melting temperature of the probe against the mismatched target (mismatched DNA target; [3]): 56 °C

Substance: 5′-Fam ACC G1A CCC AGC 1GC CC BHQ1-3′ [Probe _5]
- Signal (25° C.) (Bgal_WT_tar oligo target): 50.57
- Signal (90° C.) (Bgal_WT_tar oligo target): 7.81

Substance: 5′-Fam A1C CGA CCC AGC GCC 1C BHQ1-3′ [Probe _2]
- Signal (25° C.) (Bgal_WT_tar oligo target): 34.12
- Signal (90° C.) (Bgal_WT_tar oligo target): 4.7

Substance: HEX-2TCAAA2AGCGA2ACTG2AT-BHQ1 (DNA NTCAAANAGCGANACTGNAT; pseudonucleotide insertions denoted 2, identity not given here, further chemistry not given here) [mut. specific probe, mutant specific probe; 2 = pseudonucleotide with hydrophobic group XXVI]
- width of window distinguishing fully complementary from single nucleotide mismatched target ([1]; HEX channel, at temperatures above 55° C.): at least 10 °C
- binding of probe in real-time PCR ([2]; at 55° C.): hybridising specifically to its target
- binding of probe in real-time PCR ([2]; at 61° C.): worked fine
- binding of probe in real-time PCR ([2]; at 65° C.): no longer binding

Substance: FAM-ATTTTAGGGCGTTTTTTTG-BHQ1 (DNA, 5' {FAM}, 3' {BHQ1}, backbone not given here) [reference compound]
- difference between hybridisation temperature to matched and mismatched target (matched DNA target): 7.8 °C
- temperature at which the probe hybridises to its matched target (matched DNA target): 64.9 °C
- temperature at which the probe hybridises to its mismatched target (mismatched DNA target): 57.1 °C

Substance: FAM-T2AGG2GCGT2TTTT2T-BHQ1 (DNA TNAGGNGCGTNTTTTNT; FAM, BHQ1, intercalating pseudonucleotide insertions, further chemistry not given here) [SB, 2 = inserted pseudonucleotide comprising intercalating hydrophobic group XXVI]
- difference between hybridisation temperature to matched and mismatched target (matched DNA target): 13.8 °C
- temperature at which the probe hybridises to its matched target (matched DNA target): 63.7 °C
- specificity higher than Stemless DNA probe having the same affinity (matched DNA target; measured as difference in affinity to a matched versus a mismatched target): 77%
- temperature at which the probe hybridises to its mismatched target (mismatched DNA target): 49.9 °C

Substance: 5′-Fam ACC GAC CCA GCG CCC BHQ1-3′ (DNA ACCGACCCAGCGCCC; reference probe without hydrophobic nucleotides, sugar not given here, further chemistry not given here) [Probe _ref (DNA), DNA probe without hydrophobic modifications, reference compound]
- Signal (25° C.) (Bgal_WT_tar oligo target): 38.11
- Signal (90° C.) (Bgal_WT_tar oligo target): 8.65
- Signal-to-noise (Bgal_WT_tar oligo target; signal at 25 degrees divided by signal at 90 degrees): 4.41

Substance: 5′-Fam ACC GA1 CCC AG1 CGC CC BHQ1-3′ [Probe _6]
- Signal (25° C.) (Bgal_WT_tar oligo target): 77.01
- Signal (90° C.) (Bgal_WT_tar oligo target): 12.85

Substance: FAM-T1CAAA1AGTGA1ACTG1AT-BHQ1 (DNA TNCAAANAGTGANACTGNAT; DNA probe with hydrophobic pseudonucleotide insertions denoted 1, structure not given here, further chemistry not given here) [wt specific probe, wild type specific probe; 1 = pyrene pseudonucleotide]
- width of window of specific hybridisation ([1]; FAM channel): approximately 5 degree
- binding of probe in real-time PCR ([2]; at 55° C.): binds to both the wild type target and the mutant
- binding of probe in real-time PCR ([2]; at 61° C.): only a specific signal from wt probe is obtained
- binding of probe in real-time PCR ([2]; at 65° C.): only binding to its specific target

Substance: 5′-Fam ACC GAC 1CC A1G CGC CC BHQ1-3′ [Probe _7]
- Signal (25° C.) (Bgal_WT_tar oligo target): 46.92
- Signal (90° C.) (Bgal_WT_tar oligo target): 7.98
